ChEMBL document CHEMBL5365501, “Brain-penetrant cyanoindane and cyanotetralin inhibitors of G2019S-LRRK2 kinase activity” (Bioorg Med Chem Lett, 2023)

Legend:
[1] = molecular target: T1, Leucine-rich repeat serine/threonine-protein kinase 2 (Homo sapiens, UniProt Q5S007, G2019S); assay: Inhibition of LRRK2 G2019S mutant (unknown origin) using LRRKtide as substrate pre-incubated for 15 min and measured after 1 hrs by HTRF assay
[2] = Stability in human liver microsomes assessed as half life at 0.5 uM incubated up to 45 min in the presence of NADPH regenerating system by LC MS/MS analysis; type: ADME, Microsome
[3] = Stability in rat liver microsomes assessed as half life at 0.5 uM incubated up to 45 min in the presence of NADPH regenerating system by LC MS/MS analysis; type: ADME, Microsome
[4] = molecular target: T1, Leucine-rich repeat serine/threonine-protein kinase 2; assay: Inhibition of phosphorylated human LRRK2 G2019S mutant at S935 in human HEK293 cells incubated for 2 hrs; type: cell-based
MDR1 (P-gp) = assay: Efflux ratio of permeability across basolateral to apical side over apical to basolateral side in dog MDCKII-MDR1 cells; type: ADME, cell-based, Canis lupus familiaris; conditions: MDCK-MDR1
[5] = molecular target: T1, Leucine-rich repeat serine/threonine-protein kinase 2; assay: Inhibition of human LRRK2 G2019S mutant phosphorylation at S1292 in human HEK293 cells incubated for 2 hrs; type: cell-based

T1 sequence (Q5S007 whole entry G2019S): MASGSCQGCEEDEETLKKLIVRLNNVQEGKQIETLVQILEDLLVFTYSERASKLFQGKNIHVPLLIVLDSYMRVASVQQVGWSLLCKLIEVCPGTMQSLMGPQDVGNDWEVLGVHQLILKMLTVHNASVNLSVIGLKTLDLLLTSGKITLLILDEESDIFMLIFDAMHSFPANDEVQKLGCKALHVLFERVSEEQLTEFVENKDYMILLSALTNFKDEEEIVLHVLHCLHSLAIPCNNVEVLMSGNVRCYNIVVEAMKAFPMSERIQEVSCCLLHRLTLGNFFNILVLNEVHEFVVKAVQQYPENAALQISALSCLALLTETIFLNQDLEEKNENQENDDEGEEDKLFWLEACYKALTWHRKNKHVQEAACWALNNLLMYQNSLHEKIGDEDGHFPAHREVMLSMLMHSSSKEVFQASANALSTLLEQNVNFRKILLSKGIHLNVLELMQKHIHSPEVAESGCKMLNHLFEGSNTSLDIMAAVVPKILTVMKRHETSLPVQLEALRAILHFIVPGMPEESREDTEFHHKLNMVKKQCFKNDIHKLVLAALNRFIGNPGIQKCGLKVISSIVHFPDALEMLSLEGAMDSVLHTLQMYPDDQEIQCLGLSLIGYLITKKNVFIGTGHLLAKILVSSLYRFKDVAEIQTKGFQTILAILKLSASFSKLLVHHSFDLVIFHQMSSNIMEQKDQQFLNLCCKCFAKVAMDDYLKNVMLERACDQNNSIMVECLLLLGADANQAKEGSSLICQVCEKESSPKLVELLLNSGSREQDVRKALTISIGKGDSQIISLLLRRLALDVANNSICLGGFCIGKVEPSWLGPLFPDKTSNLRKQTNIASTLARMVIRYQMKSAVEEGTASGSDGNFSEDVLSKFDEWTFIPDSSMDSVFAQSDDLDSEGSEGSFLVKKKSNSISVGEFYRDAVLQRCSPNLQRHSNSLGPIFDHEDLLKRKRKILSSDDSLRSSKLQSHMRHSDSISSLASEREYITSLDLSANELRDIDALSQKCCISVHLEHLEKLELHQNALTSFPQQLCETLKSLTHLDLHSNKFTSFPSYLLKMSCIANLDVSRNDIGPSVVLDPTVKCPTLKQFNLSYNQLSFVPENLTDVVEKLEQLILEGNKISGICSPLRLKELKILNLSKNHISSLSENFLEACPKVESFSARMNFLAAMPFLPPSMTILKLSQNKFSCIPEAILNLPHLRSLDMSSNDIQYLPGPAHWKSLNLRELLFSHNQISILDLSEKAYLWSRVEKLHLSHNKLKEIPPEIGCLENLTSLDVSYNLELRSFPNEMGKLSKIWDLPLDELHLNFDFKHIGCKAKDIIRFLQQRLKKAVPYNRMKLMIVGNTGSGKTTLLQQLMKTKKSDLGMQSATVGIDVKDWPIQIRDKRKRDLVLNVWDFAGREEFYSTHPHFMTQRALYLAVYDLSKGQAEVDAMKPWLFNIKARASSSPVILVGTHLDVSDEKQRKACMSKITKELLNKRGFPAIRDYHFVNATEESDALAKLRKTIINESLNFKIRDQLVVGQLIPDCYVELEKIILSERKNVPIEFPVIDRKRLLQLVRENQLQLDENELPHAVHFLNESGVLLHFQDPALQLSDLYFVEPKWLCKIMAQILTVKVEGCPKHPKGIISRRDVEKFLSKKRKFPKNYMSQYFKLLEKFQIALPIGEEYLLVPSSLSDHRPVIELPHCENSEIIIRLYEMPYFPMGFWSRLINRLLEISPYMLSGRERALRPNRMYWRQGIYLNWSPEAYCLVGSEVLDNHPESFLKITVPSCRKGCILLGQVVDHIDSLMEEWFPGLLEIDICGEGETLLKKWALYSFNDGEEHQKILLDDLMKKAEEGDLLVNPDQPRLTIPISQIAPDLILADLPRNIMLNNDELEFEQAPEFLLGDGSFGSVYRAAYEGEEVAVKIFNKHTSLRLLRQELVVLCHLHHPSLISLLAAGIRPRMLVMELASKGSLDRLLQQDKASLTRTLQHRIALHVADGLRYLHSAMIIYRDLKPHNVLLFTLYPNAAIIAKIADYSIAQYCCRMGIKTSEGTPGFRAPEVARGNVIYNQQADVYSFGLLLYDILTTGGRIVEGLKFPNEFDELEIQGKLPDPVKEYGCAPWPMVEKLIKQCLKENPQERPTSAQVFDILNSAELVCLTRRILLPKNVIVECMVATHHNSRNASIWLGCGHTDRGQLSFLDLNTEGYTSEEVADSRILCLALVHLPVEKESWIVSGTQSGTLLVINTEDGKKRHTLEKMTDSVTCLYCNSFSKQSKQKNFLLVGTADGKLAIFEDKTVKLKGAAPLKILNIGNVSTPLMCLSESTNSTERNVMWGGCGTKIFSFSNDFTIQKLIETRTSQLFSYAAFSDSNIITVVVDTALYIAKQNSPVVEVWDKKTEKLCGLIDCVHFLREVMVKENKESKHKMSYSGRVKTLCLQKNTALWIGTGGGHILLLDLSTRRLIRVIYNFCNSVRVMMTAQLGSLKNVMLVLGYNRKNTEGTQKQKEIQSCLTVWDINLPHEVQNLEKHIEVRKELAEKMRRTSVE

| IC50 [1] | Compound | also measured |
| --- | --- | --- |
| 35 nM | CC1=C(C(=O)Nc2ccc3[nH]ncc3c2)Cn2nnnc2N1C |  |
| 3 nM | CC1=C(C(=O)Nc2ccc3[nH]nc(-c4ccccc4)c3c2)C(C)(C)n2nnnc2N1C |  |
| 11 nM | N#Cc1ccc2c(c1)CC[C@@H]2Nc1ccc2[nH]nc(-c3ccoc3)c2c1 | half-life at 0.5 µM [2]: 25 min; half-life at 0.5 µM [3]: 54 min; IC50 [4]: 96 nM; efflux ratio (MDR1 (P-gp)): 1.8; IC50 [5]: 57 nM |
| 98 nM | COCc1ccc(C(=O)Nc2ccc3[nH]nc(-c4ccoc4)c3c2)cc1 |  |
| 49 nM | CS(=O)(=O)c1ccc(C(=O)Nc2ccc3[nH]nc(-c4ccoc4)c3c2)cc1 |  |
| 62 nM | Cc1n[nH]c2ccc(O[C@@H]3CCc4cc(C#N)ccc43)cc12 |  |
| 790 nM | N#Cc1ccc(C(=O)Nc2ccc3[nH]nc(C4CC4)c3c2)cc1 |  |
| 13 nM | Cn1ncc2cc(C(=O)Nc3ccc4[nH]nc(-c5ccoc5)c4c3)ccc21 | efflux ratio (MDR1 (P-gp)): 9.2 |
| 14 nM | N#Cc1ccc2c(c1)[C@@H](Nc1ccc3[nH]nc(Br)c3c1)CCC2 |  |
| 63 nM | N#Cc1ccc2c(c1)CC[C@H]2Nc1ccc2[nH]nc(-c3ccoc3)c2c1 |  |
| 0.9 nM | N#Cc1ccc2c(c1)CCC[C@@H]2Nc1ccc2[nH]nc(-c3cnco3)c2c1 |  |
| 1.4 nM | N#Cc1ccc2c(c1)CCC[C@@H]2Oc1ccc2[nH]nc(-c3ccnc(N4CCOCC4)c3)c2c1 |  |
| 173 nM | O=C(Nc1ccc2[nH]nc(-c3ccoc3)c2c1)c1cnc2cnccc2c1 |  |
| 74 nM | O=C(Nc1ccc2[nH]nc(-c3ccoc3)c2c1)c1nc2cnccc2s1 |  |
| > 7600 nM | N#Cc1ccc2c(c1)C(=O)N(c1ccc3[nH]nc(C4CC4)c3c1)C2=O |  |
| < 0.2 nM | N#Cc1ccc2c(c1)CCC[C@@H]2Oc1ccc2[nH]nc(-c3cnco3)c2c1 | half-life at 0.5 µM [2]: 28 min; half-life at 0.5 µM [3]: 42 min; IC50 [4]: 6.2 nM; efflux ratio (MDR1 (P-gp)): 1.7; IC50 [5]: 3.5 nM |
| 5500 nM | N#Cc1ccc2c(c1)CCN(c1ccc3[nH]nc(C4CC4)c3c1)C2=O |  |
| 250 nM | CN(C)Cc1ccc(C(=O)Nc2ccc3[nH]nc(-c4ccoc4)c3c2)cc1 |  |
| 14 nM | Cc1n[nH]c2ccc(O[C@H]3CCc4cc(C#N)ccc43)cc12 |  |
| 41 nM | N#Cc1ccc(C(=O)Nc2ccc3[nH]nc(-c4ccoc4)c3c2)cc1 | efflux ratio (MDR1 (P-gp)): 1.9 |
| 615 nM | N#Cc1ccc2c(c1)CN(c1ccc3[nH]nc(C4CC4)c3c1)C2=O |  |
| 2.8 nM | Cc1n[nH]c2ccc(O[C@H]3CCCc4cc(C#N)ccc43)cc12 | half-life at 0.5 µM [2]: 35 min; half-life at 0.5 µM [3]: 18 min; IC50 [4]: 137 nM; efflux ratio (MDR1 (P-gp)): 1.3; IC50 [5]: 62 nM |
| 0.4 nM | N#Cc1ccc2c(c1)CC[C@@H]2Oc1ccc2[nH]nc(-c3cnco3)c2c1 | half-life at 0.5 µM [2]: 61 min; half-life at 0.5 µM [3]: 53 min; IC50 [4]: 27 nM; efflux ratio (MDR1 (P-gp)): 2.2; IC50 [5]: 8.3 nM |
